This assay has as its target T1, Recombinant human cathepsin A (Homo sapiens, UniProt P10619).
T1 construct: Recombinant human cathepsin A (residues 29-480, with a C-terminal 10-His tag); 10-His (C); purchased R&D Systems 1049-SE
T1 sequence (P10619 29-326 limits assumed): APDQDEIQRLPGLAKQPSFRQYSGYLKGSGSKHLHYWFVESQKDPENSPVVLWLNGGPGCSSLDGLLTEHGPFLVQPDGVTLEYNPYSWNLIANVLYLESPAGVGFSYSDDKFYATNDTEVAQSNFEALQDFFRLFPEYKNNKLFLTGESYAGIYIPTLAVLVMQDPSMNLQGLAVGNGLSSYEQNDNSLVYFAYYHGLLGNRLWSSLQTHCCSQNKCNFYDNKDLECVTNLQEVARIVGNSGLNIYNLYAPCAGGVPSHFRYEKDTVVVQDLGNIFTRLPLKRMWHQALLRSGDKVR
T1 sequence (P10619 327-480 limits assumed): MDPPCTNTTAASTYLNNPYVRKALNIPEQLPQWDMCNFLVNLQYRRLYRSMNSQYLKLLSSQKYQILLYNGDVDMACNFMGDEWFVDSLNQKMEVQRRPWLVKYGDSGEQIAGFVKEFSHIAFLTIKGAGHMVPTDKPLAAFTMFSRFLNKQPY
The assay can be described thus: Cathepsin A inhibitory activity. The note with it: activated recombinant human cathepsin A, Bodipy FL-labeled bradykinin substrate, pH 5.5, microfluidic capillary electrophoresis. It counts as biochemical. As to the method: Recombinant human cathepsin A (residues 29-480, with a C-terminal 10-His tag; R&D Systems, # 1049-SE) was proteolytically activated with recombinant human cathepsin L (R&D Systems, # 952-CY). Briefly, cathepsin A was incubated at 10 μg/ml with cathepsin L at 1 μg/ml in activation buffer (25 mM 2-(morpholin-4-yl)-ethanesulfonic acid (MES), pH 6.0, containing 5 mM dithiothreitol (DTT)) for 15 min at 37° C. Cathepsin L activity was then stopped by the addition of the cysteine protease inhibitor E-64 (N-(trans-epoxysuccinyl)-L-leucine-4-guanidinobutylamide; Sigma-Aldrich, # E3132; dissolved in activation buffer/DMSO) to a final concentration of 10 μM.
The activated cathepsin A was diluted in assay buffer (25 mM MES, pH 5.5, containing 5 mM DTT) and mixed with the test compound (dissolved in assay buffer containing (v/v) 3% DMSO) or, in the control experiments, with the vehicle in a multiple assay plate. […]
Uncleaved substrate and product were then separated by a microfluidic capillary electrophoresis on a LabChip® 3000 Drug Discovery System (12-Sipper-Chip; Caliper Life Sciences) and quantified by determination of the respective peak areas. Substrate turnover was calculated by dividing product peak area by the sum of substrate and product peak areas, and the enzyme activity and the inhibitory effect of the test compound thus quantified. […]

Data on 1 compound can be found in patent US20130123276A1, “USE OF TELAPREVIR AND RELATED COMPOUNDS IN ATHEROSCLEROSIS, HEART FAILURE, RENAL DISEASES, LIVER DISEASES OR INFLAMMATORY DISEASES” (priority 2011, published 2013).

By IC50 is commonly meant the point on the concentration scale where inhibition reaches its midpoint.

Consider `CCC[C@H](NC(=O)[C@@H]1[C@H]2CCC[C@H]2CN1C(=O)[C@@H](NC(=O)[C@@H](NC(=O)c1cnccn1)C1CCCCC1)C(C)(C)C)C(=O)C(=O)NC1CC1` [Telaprevir, (1 S,3aR,6aS)-2-[(2S)-2-[[(2S)-2-Cyclohexyl-2-(pyrazine-2-carbonylamino)acetyl]amino]-3,3-dimethylbutanoyl]-N-[(3S)-1-(cyclopropylamino)-1,2-dioxohexan-3-yl]-3,3a,4,5,6,6a-hexahydro-1H-cyclopenta[c]pyrrole-1-carboxamide], for which the IC50 was 100 nM.
